US9707233B2, “Heterocyclylamines as PI3K inhibitors” (Incyte Corporation, priority 2011, dated 2017)

Target: PI3Kδ (p110δ/p85α) (Homo sapiens (Human), UniProt O00329)
Test: PI3Kδ scintillation proximity assay (Example A3)
Assay type: biochemical
Conditions: 20 μM ATP, 20 μM PIP2, 4 nM PI3Kδ; read-out: PI3Kδ SPA IC50
Method in brief: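 Human PI3Kδ (p110δ/p85α, 4 nM) with 20 μM PIP2 and 20 μM ATP plus [γ-33P]ATP in 20 mM MOPS pH 6.7, 10 mM MgCl2, 5 mM DTT, 0.03% CHAPS, 0.5% DMSO, room temperature. Reaction stopped with EDTA/excess ATP; product captured on WGA SPA beads and counted. IC50 from percent control activity vs log inhibitor.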

Sequence of PI3Kδ (p110δ/p85α) (O00329 whole entry): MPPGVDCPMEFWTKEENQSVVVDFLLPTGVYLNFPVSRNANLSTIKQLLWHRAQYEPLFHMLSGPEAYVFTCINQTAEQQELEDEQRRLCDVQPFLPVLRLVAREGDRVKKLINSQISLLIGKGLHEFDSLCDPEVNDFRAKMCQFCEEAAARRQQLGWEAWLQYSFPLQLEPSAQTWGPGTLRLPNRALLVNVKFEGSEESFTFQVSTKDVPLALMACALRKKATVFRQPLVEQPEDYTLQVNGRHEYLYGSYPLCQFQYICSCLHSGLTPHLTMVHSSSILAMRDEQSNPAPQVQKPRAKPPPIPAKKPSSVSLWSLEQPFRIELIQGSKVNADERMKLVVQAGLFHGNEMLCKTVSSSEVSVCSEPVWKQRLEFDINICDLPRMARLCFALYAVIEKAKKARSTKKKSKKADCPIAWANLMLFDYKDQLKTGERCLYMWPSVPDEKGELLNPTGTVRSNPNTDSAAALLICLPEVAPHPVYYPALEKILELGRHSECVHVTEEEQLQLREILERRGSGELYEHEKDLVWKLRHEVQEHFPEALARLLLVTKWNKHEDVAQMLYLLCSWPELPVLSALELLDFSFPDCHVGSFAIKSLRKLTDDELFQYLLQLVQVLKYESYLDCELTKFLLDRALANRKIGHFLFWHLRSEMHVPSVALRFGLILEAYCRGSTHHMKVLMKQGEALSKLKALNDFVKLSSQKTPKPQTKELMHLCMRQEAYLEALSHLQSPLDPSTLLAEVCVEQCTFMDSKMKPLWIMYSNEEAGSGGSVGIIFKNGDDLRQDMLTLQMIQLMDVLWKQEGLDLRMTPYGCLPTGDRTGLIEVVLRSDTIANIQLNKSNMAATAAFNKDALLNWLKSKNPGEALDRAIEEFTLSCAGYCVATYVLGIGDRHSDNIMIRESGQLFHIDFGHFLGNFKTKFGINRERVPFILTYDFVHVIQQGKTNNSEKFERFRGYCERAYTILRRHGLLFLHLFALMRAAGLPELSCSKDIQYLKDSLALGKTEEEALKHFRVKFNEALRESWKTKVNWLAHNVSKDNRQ
Sequence of PI3Kδ (p110δ/p85α) (P27986 whole entry partner): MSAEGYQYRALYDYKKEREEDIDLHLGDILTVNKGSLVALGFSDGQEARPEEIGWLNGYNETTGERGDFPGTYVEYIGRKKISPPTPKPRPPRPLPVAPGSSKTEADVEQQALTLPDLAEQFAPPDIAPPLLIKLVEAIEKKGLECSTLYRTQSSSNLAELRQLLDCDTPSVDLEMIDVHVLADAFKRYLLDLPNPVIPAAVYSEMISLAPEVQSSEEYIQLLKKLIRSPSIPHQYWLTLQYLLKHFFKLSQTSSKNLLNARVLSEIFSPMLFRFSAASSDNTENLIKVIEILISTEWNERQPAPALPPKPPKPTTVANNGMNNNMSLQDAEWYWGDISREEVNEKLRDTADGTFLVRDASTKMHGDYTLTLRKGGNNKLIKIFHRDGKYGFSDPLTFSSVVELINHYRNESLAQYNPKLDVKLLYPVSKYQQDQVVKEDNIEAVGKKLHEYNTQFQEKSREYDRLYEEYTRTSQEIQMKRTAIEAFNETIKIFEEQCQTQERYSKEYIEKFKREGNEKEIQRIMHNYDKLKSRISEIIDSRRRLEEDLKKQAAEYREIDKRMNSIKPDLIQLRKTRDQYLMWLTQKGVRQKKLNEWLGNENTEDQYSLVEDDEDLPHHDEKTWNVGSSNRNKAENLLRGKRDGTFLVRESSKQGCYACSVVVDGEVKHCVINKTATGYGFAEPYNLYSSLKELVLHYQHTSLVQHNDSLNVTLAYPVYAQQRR

COc1c(C(C)n2ccc(=O)c3c(N)ncnc32)cc(Cl)c(C)c1-c1cccc(C(=O)N(C)C)c1 (racemic) [Example 30, 3′-[1-(4-Amino-5-oxopyrido[2,3-d]pyrimidin-8(5H)-yl)ethyl]-5′-chloro-2′-methoxy-N,N,6′-trimethylbiphenyl-3-carboxamide bis(trifluoroacetate)]
IC50: ≤ 10 nM

CCOc1c(C(C)n2nc(CF)c3c(N)ncnc32)cc(Cl)c(C)c1-c1ccc(C(=O)N(C)C)nc1 (racemic) [Example 86, 5-(3-{1-[4-Amino-3-(fluoromethyl)-1H-pyrazolo[3,4-d]pyrimidin-1-yl]ethyl}-5-chloro-2-ethoxy-6-methylphenyl)-N,N-dimethylpyridine-2-carboxamide bis(trifluoroacetate)]
IC50: ≤ 10 nM

COc1c(C(C)n2nc(C)c3c(N)ncnc32)cc(Cl)c(C)c1-c1cnn(CCO)c1 (single isomer, unassigned) [20 (2nd peak), 2-(4-(3-(1-(4-Amino-3-methyl-1H-pyrazolo[3,4-d]pyrimidin-1-yl)ethyl)-5-chloro-2-methoxy-6-methylphenyl)-1H-pyrazol-1-yl)ethanol]
IC50: 50 to 200 nM

CCOc1c(C(C)n2nc(C)c3c(N)ncnc32)cc(Cl)c(F)c1C1CNC(=O)O1 (single isomer, unassigned) [Example 355, 5-{3-[1-(4-amino-3-methyl-1H-pyrazolo[3,4-d]pyrimidin-1-yl)ethyl]-5-chloro-2-ethoxy-6-fluorophenyl}-1,3-oxazolidin-2-one]
IC50: 50 to 200 nM

CCOc1c(C(C)n2nc(C)c3c(N)ncnc32)cc(Cl)c(C#N)c1-c1ccnc(C(=O)N(C)C)c1 (single isomer, unassigned) [Example 334, 4-{3-[1-(4-amino-3-methyl-1H-pyrazolo[3,4-d]pyrimidin-1-yl)ethyl]-5-chloro-6-cyano-2-ethoxyphenyl}-N,N-dimethylpyridine-2-carboxamide]
IC50: ≤ 10 nM

COc1c(C(C)n2nc(C(F)F)c3c(N)ncnc32)cc(Cl)c(F)c1C1CN(C)C1 (centres unmarked) [Example 75, 1-{1-[5-Chloro-4-fluoro-2-methoxy-3-(1-methylazetidin-3-yl)phenyl]ethyl}-3-(difluoromethyl)-1H-pyrazolo[3,4-d]pyrimidin-4-amine]
IC50: ≤ 10 nM

COc1c(C(C)n2ccc(=O)c3c(N)ncnc32)cc(Cl)c(C)c1-c1ccc(C(=O)N(C)C)nc1 (single isomer, unassigned) [25 (2nd peak), 5-{3-[1-(4-Amino-5-oxopyrido[2,3-d]pyrimidin-8(5H)-yl)ethyl]-5-chloro-2-methoxy-6-methylphenyl}-N,N-dimethylpyridine-2-carboxamide]
IC50: ≤ 10 nM

CCOc1c(C(C)n2nc(C)c3c(N)ncnc32)cc(Cl)c(F)c1C1CNC(=O)C1 (single isomer, unassigned) [Example 347, 4-{3-[1-(4-amino-3-methyl-1H-pyrazolo[3,4-d]pyrimidin-1-yl)ethyl]-5-chloro-2-ethoxy-6-fluorophenyl}pyrrolidin-2-one]
IC50: ≤ 10 nM

COc1c(C(C)n2nc(C)c3c(N)ncnc32)cc(Cl)c(C#N)c1-c1ccc(C(=O)N(C)C)nc1 (single isomer, unassigned) [313 (2nd peak), 5-{3-[1-(4-amino-3-methyl-1H-pyrazolo[3,4-d]pyrimidin-1-yl)ethyl]-5-chloro-6-cyano-2-methoxyphenyl}-N,N-dimethylpyridine-2-carboxamide]
IC50: ≤ 10 nM

COc1c(C(C)n2nc(C)c3c(N)ncnc32)cc(Cl)c(C)c1-c1cnc(N)nc1 (single isomer, unassigned) [Example 169, 1-(1-(3-(2-aminopyrimidin-5-yl)-5-chloro-2-methoxy-4-methylphenyl)ethyl)-3-methyl-1H-pyrazolo[3,4-d]pyrimidin-4-amine]
IC50: ≤ 10 nM

COc1c(C(C)n2nc(C)c3c(N)ncnc32)cc(Cl)c(C)c1-c1cnn(CC(=O)N(C)C)c1 (single isomer, unassigned) [Example 206, 2-(4-(3-(1-(4-amino-3-methyl-1H-pyrazolo[3,4-d]pyrimidin-1-yl)ethyl)-5-chloro-2-methoxy-6-methylphenyl)-1H-pyrazol-1-yl)-N,N-dimethylacetamide]
IC50: ≤ 10 nM

CCOc1c(C(C)n2nc(C)c3c(N)ncnc32)cc(Cl)c(C#N)c1N1CC(COC)C1 (racemic) [Example 341, 4-[1-(4-amino-3-methyl-1H-pyrazolo[3,4-d]pyrimidin-1-yl)ethyl]-6-chloro-3-ethoxy-2-[3-(methoxymethyl)azetidin-1-yl]benzonitrile]
IC50: ≤ 10 nM

CCOc1c(C(C)n2nc(C)c3c(N)ncnc32)cc(Cl)c(C#N)c1C1CNC(=O)O1 (single isomer, unassigned) [323 (1st peak), 4-[1-(4-amino-3-methyl-1H-pyrazolo[3,4-d]pyrimidin-1-yl)ethyl]-6-chloro-3-ethoxy-2-(2-oxo-1,3-oxazolidin-5-yl)benzonitrile]
IC50: ≤ 10 nM

COc1c(C(C)n2nc(-c3cnn(C)c3)c3c(N)ncnc32)cc(Cl)c(C)c1C1CN(CC#N)C1 (racemic) [Example 125, [3-(3-{1-[4-Amino-3-(1-methyl-1H-pyrazol-4-yl)-1H-pyrazolo[3,4-d]pyrimidin-1-yl]ethyl}-5-chloro-2-methoxy-6-methylphenyl)azetidin-1-yl]acetonitrile bis(trifluoroacetate)]
IC50: ≤ 10 nM

CCOc1c(C(C)n2nc(-c3ccn(C)n3)c3c(N)ncnc32)cc(Cl)c(C)c1-c1ccc(C(=O)N(C)C)nc1 (centres unmarked) [Example 50, 5-(3-{1-[4-amino-3-(1-methyl-1H-pyrazol-3-yl)-1H-pyrazolo[3,4-d]pyrimidin-1-yl]ethyl}-5-chloro-2-ethoxy-6-methylphenyl)-N,N-dimethylpyridine-2-carboxamide bis(trifluoroacetate)]
IC50: ≤ 10 nM

COc1c(C(C)n2nc(C)c3c(N)ncnc32)cc(Cl)c(C)c1C1CN(CC(N)=O)C1 (centres unmarked) [Example 111, 2-(3-{3-[1-(4-Amino-3-methyl-1H-pyrazolo[3,4-d]pyrimidin-1-yl)ethyl]-5-chloro-2-methoxy-6-methylphenyl}azetidin-1-yl)acetamide]
IC50: ≤ 10 nM

COc1c(C(C)n2ncc3c(N)ncnc32)cc(Cl)c(C)c1-c1ccnc(C(=O)NCCO)c1 (racemic) [Example 39, 4-{3-[1-(4-amino-1H-pyrazolo[3,4-d]pyrimidin-1-yl)ethyl]-5-chloro-2-methoxy-6-methylphenyl}-N-(2-hydroxyethyl)pyridine-2-carboxamide]
IC50: 50 to 200 nM

COc1c(C(C)n2nc(C)c3c(N)ncnc32)cc(Cl)c(C#N)c1C1CN(C(=O)OC(C)C)C1 (single isomer, unassigned) [Example 291, Isopropyl 3-{3-[1-(4-amino-3-methyl-1H-pyrazolo[3,4-d]pyrimidin-1-yl)ethyl]-5-chloro-6-cyano-2-methoxyphenyl}azetidine-1-carboxylate]
IC50: ≤ 10 nM

COc1c(C(C)n2nc(C)c3c(N)ncnc32)cc(C#N)c(C)c1-c1ccnc(C(=O)N(C)CCO)c1 (racemic) [Example 40, 4-{3-[1-(4-amino-3-methyl-1H-pyrazolo[3,4-d]pyrimidin-1-yl)ethyl]-5-cyano-2-methoxy-6-methylphenyl}-N-(2-hydroxyethyl)-N-methylpyridine-2-carboxamide]
IC50: 10 to 50 nM

COc1c(C(C)n2nc(C)c3c(N)ncnc32)cc(Cl)c(C)c1-c1cncc(C(=O)N(C)CCN)c1 (single isomer, unassigned) [Example 178, 5-(3-(1-(4-amino-3-methyl-1H-pyrazolo[3,4-d]pyrimidin-1-yl)ethyl)-5-chloro-2-methoxy-6-methylphenyl)-N-(2-aminoethyl)-N-methylnicotinamide]
IC50: ≤ 10 nM

CCOc1c(C(C)n2nc(C)c3c(N)ncnc32)cc(C)c(C#N)c1C1CN(CC(C)(C)O)C1 (single isomer, unassigned) [Example 321, 4-[1-(4-amino-3-methyl-1H-pyrazolo[3,4-d]pyrimidin-1-yl)ethyl]-3-ethoxy-2-[1-(2-hydroxy-2-methylpropyl)azetidin-3-yl]-6-methylbenzonitrile]
IC50: ≤ 10 nM

CCOc1c(C(C)n2nc(C)c3c(N)ncnc32)cc(Cl)c(C#N)c1-c1ccc(-c2nnn(C)n2)nc1 (racemic) [Example 336, 4-[1-(4-amino-3-methyl-1H-pyrazolo[3,4-d]pyrimidin-1-yl)ethyl]-6-chloro-3-ethoxy-2-[6-(2-methyl-2H-tetrazol-5-yl)pyridin-3-yl]benzonitrile]
IC50: ≤ 10 nM

CCN1CC(c2c(C#N)c(Cl)cc(C(C)n3nc(C)c4c(N)ncnc43)c2OC)C1 (single isomer, unassigned) [Example 263, 4-[1-(4-Amino-3-methyl-1H-pyrazolo[3,4-d]pyrimidin-1-yl)ethyl]-6-chloro-2-(1-ethylazetidin-3-yl)-3-methoxybenzonitrile]
IC50: ≤ 10 nM

CCNC(=O)N1CC(c2c(C#N)c(Cl)cc(C(C)n3nc(C)c4c(N)ncnc43)c2OCC)C1 (single isomer, unassigned) [Example 258, 3-{3-[1-(4-Amino-3-methyl-1H-pyrazolo[3,4-d]pyrimidin-1-yl)ethyl]-5-chloro-6-cyano-2-ethoxyphenyl}-N-ethylazetidine-1-carboxamide]
IC50: ≤ 10 nM

CCOc1c(C(C)n2nc(C(F)F)c3c(N)ncnc32)cc(Cl)c(F)c1C1CN(CC(C)(C)O)C1 (racemic) [Example 153, 1-[3-(3-{1-[4-Amino-3-(difluoromethyl)-1H-pyrazolo[3,4-d]pyrimidin-1-yl]ethyl}-5-chloro-2-ethoxy-6-fluorophenyl)azetidin-1-yl]-2-methylpropan-2-ol]
IC50: ≤ 10 nM

CCOc1c(C(C)n2nc(C(F)F)c3c(N)ncnc32)cc(Cl)c(F)c1C1CN(CCO)C1 (racemic) [Example 152, 2-[3-(3-{-1-[4-Amino-3-(difluoromethyl)-1H-pyrazolo[3,4-d]pyrimidin-1-yl]ethyl}-5-chloro-2-ethoxy-6-fluorophenyl)azetidin-1-yl]ethanol]
IC50: ≤ 10 nM
